Reference: ChEMBL document CHEMBL3044655, “QSAR studies of 7-methyljuglone derivatives as antitubercular agents” (Med Chem Res, 2012)
pIC50: −log10 of the molar value.

Tested on: Mycobacterium tuberculosis
Assay: Antitubercular activity against Mycobacterium tuberculosis H37Rv by BACTEC method
Assay type: functional, organism-based
Details: for pIC50: read-out: IC50; for IC50: read-out: pIC50 (converted)

## COc1cc(C)cc2c1C(=O)C=CC2=O
  pIC50: 8.24
  IC50: 5.8 nM

## COc1c(C)cc(Cl)c2c1C(=O)C=CC2=O
  pIC50: 8.10
  IC50: 8 nM

## Cc1cc(O)c2c(c1)C(=O)C(O)=CC2=O
  pIC50: 8.51
  IC50: 3.1 nM

## Cc1cc(O)c2c(c1)C(=O)C=CC2=O [RAMENTACEONE]
  pIC50: 7.82
  IC50: 15.1 nM

## COc1c(OC)c(OC(C)=O)c2c(OC(C)=O)cc(OC(C)=O)c(OC(C)=O)c2c1F
  pIC50: 8.41
  IC50: 3.86 nM

## CC(=O)Oc1cc(OC(C)=O)c2c(OC(C)=O)ccc(Cl)c2c1OC(C)=O
  pIC50: 7.91
  IC50: 12.2 nM

## CCOc1cc(C)c(Cl)c2c1C(=O)C=CC2=O
  pIC50: 7.44
  IC50: 36.1 nM

## Cc1ccc2c(c1O)C(=O)C=CC2=O
  pIC50: 8.51
  IC50: 3.1 nM

## O=C1C=CC(=O)c2c(O)cccc21 [JUGLONE]
  pIC50: 8.92
  IC50: 1.2 nM

## Cc1cc(O)c2c(c1Cl)C(=O)C=CC2=O [5-CHLORO-8-HYDROXY-6-METHYLNAPHTHALENE-1,4-DIONE]
  pIC50: 8.60
  IC50: 2.5 nM

## CC(=O)Oc1cc(OC(C)=O)c2c(OC(C)=O)cc(C)c(Cl)c2c1OC(C)=O
  pIC50: 7.56
  IC50: 27.8 nM

## CC(=O)Oc1cc(OC(C)=O)c2c(OC(C)=O)cc(C)cc2c1OC(C)=O
  pIC50: 7.76
  IC50: 17.2 nM

## CC(=O)Oc1cc(C)c(Cl)c2c1C(=O)C=CC2=O
  pIC50: 8.20
  IC50: 6.3 nM

## CCOc1cc(C)cc2c1C(=O)C=CC2=O
  pIC50: 8.20
  IC50: 6.3 nM

## CC(=O)Oc1cc(OC(C)=O)c2c(OC(C)=O)ccc(F)c2c1OC(C)=O
  pIC50: 8.10
  IC50: 7.97 nM

## Cc1cc(Cl)c2c(c1O)C(=O)C=CC2=O [8-CHLORO-5-HYDROXY-6-METHYLNAPHTHALENE-1,4-DIONE]
  pIC50: 8.34
  IC50: 4.6 nM

## CCOc1c(C)cc(Cl)c2c1C(=O)C=CC2=O
  pIC50: 7.90
  IC50: 12.5 nM

## CC(=O)Oc1cc(OC(C)=O)c2c(OC(C)=O)c(C)cc(Cl)c2c1OC(C)=O
  pIC50: 6.83
  IC50: 149 nM

## Cc1cc(O)c2c(c1Br)C(=O)C=CC2=O [5-BROMO-8-HYDROXY-6-METHYLNAPHTHALENE-1,4-DIONE]
  pIC50: 8.44
  IC50: 3.6 nM

## CC(=O)Oc1cc(OC(C)=O)c2c(OC(C)=O)c(C)c(C)c(F)c2c1OC(C)=O
  pIC50: 8.48
  IC50: 3.34 nM

## CC(=O)Oc1cc(C)cc2c1C(=O)C=CC2=O
  pIC50: 8.22
  IC50: 6 nM

## CC(=O)Oc1cc(OC(C)=O)c2c(OC(C)=O)c(C)c(C)c(Cl)c2c1OC(C)=O
  pIC50: 8.11
  IC50: 7.7 nM

## CC(=O)Oc1c(C)cc(Cl)c2c1C(=O)C=CC2=O
  pIC50: 7.68
  IC50: 21.1 nM

## Cc1cc(O)c2c(c1F)C(=O)C=CC2=O [5-FLUORO-8-HYDROXY-6-METHYLNAPHTHALENE-1,4-DIONE]
  pIC50: 8.12
  IC50: 7.6 nM

## COc1cc(C)c(Cl)c2c1C(=O)C=CC2=O
  pIC50: 8.11
  IC50: 7.7 nM
